These compounds were tested against T1, human TRPM8 (Homo sapiens, UniProt Q7Z2W7) (assay: Luminescence readout assay for measuring intracellular calcium (aequorin), hTRPM8 antagonism). Conditions: CHO cell line expressing human TRPM8 and aequorin; activation by icilin, L-menthol or cold buffer (table does not say which).
T1 construct: expressed in transfected cells; host or cells: Chinese hamster ovary (CHO) cells, T-REx tetracycline-inducible expression system (Invitrogen), co-transfected with pcDNA3.1 jellyfish aequorin
T1 sequence (Q7Z2W7 whole entry): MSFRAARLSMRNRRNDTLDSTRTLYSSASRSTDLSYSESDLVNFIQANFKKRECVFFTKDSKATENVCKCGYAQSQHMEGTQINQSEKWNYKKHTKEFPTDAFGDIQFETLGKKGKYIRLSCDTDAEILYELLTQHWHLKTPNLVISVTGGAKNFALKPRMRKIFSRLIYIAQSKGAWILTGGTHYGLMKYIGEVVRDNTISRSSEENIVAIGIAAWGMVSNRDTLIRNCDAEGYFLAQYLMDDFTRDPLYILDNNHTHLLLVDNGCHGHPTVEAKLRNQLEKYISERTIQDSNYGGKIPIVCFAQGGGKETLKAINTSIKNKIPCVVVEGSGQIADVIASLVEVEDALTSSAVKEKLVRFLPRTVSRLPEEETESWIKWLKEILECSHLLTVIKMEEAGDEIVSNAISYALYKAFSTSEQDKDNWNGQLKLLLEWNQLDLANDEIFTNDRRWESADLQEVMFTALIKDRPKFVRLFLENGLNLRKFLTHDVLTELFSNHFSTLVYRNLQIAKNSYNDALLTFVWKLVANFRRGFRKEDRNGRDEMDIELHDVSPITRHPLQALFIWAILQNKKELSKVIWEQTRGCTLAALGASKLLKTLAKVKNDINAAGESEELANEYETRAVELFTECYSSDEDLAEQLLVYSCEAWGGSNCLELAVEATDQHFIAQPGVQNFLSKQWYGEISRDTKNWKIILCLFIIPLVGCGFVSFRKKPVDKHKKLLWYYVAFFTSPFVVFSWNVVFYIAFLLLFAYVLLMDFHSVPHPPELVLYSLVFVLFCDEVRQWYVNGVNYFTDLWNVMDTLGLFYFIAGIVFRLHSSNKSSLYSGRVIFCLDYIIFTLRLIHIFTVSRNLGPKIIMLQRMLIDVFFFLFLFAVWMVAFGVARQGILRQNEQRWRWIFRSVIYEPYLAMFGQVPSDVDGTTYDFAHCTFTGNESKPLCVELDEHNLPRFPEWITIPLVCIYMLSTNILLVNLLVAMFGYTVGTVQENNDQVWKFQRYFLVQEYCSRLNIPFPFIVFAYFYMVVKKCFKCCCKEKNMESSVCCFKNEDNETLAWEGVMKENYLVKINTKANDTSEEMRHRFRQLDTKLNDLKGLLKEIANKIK
Assay type: cell-based
Work on `O=C(Nc1cncnc1)N[C@@H](c1ccc(C(F)(F)F)c(F)c1)c1ncccc1C(F)(F)F` [Example 155, (S)-1-((3-fluoro-4-(trifluoro-methyl)-phenyl)(3-(trifluoro-methyl)-pyridin-2-yl)-methyl)-3-(pyrimidin-5-yl)urea (2,2,2-trifluoro-acetate)] yielded an IC50 of 62 nM. Work on `COc1ccc([C@H](NC(=O)Nc2cccnc2)c2ncccc2C(F)(F)F)cc1F` [Example 5, (S)-1-((3-fluoro-4-methoxy-phenyl)(3-(trifluoro-methyl)-pyridin-2-yl)-methyl)-3-(pyridin-3-yl)-urea] yielded an IC50 of 145 nM. Work on `FC(F)(F)c1ccc([C@H](NC(=S)Nc2cccnc2)c2ncccc2C(F)(F)F)cc1` [Example 122, (S)-1-(pyridin-3-yl)-3-((4-(trifluoro-methyl)-phenyl)(3-(trifluoro-methyl)-pyridin-2-yl)-methyl)-thiourea] yielded an IC50 of 221 nM. `O=C(Nc1cccnc1)N[C@@H](c1ccc(F)cc1)c1ncccc1C(F)(F)F` [Example 19, (S)-((4-fluorophenyl)-(3-(trifluoro-methyl)-pyridin-2-yl)-methyl)-3-(pyridin-3-yl)-urea] gave an IC50 of 382 nM. `CCOC(=O)CCNC(=O)N[C@@H](c1ccc(C(F)(F)F)cc1)c1ncccc1C(F)(F)F` [Example 66, (S)-ethyl 3-(3-((4-(trifluoro-methyl)-phenyl)(3-(trifluoro-methyl)-pyridin-2-yl)-methyl)-ureido)-propanoate (2,2,2-trifluoro-acetate)] was tested, and the IC50 was 905 nM. With `Cc1ccc(NC(=O)N[C@@H](c2ccc(C(F)(F)F)cc2)c2ncccc2C(F)(F)F)cc1[N+](=O)[O-]` [Example 140, (S)-1-(4-methyl-3-nitrophenyl)-3-((4-(trifluoro-methyl)-phenyl)(3-(trifluoro-methyl)-pyridin-2-yl)-methyl)urea (2,2,2-trifluoro-acetate)] the IC50 was 1300 nM. Work on `O=C(Nc1cccnc1)N[C@@H](c1cccc(Cl)c1)c1ncccc1C(F)(F)F` [Example 3, (S)-1-((3-chlorophenyl)-(3-(trifluoro-methyl)-pyridin-2-yl)-methyl)-3-(pyridin-3-yl)-urea] yielded an IC50 of 172 nM. With `O=C(Nc1cccnc1)N[C@@H](c1ccc(Cl)cc1)c1ncccc1C(F)(F)F` [Example 26, (S)-1-((4-chlorophenyl)-(3-(trifluoro-methyl)-pyridin-2-yl)-methyl)-3-(pyridin-3-yl)-urea] the IC50 was 248 nM. `Cc1cc(C)cc(NC(=O)N[C@@H](c2ccc(C(F)(F)F)cc2)c2ncccc2C(F)(F)F)c1` [Example 106, (S)-1-(3,5-dimethylphenyl)-3-((4-(trifluoro-methyl)-phenyl)(3-(trifluoro-methyl)-pyridin-2-yl)-methyl)urea (2,2,2-trifluoro-acetate)] showed an IC50 of 494 nM. With `O=C(Nc1cccnc1)N[C@@H](c1cccc(C(F)(F)F)c1)c1ncccc1C(F)(F)F` [Example 9, (S)-1-((3-(trifluoro-methyl)-phenyl)(3-(trifluoro-methyl)-pyridin-2-yl)-methyl)-3-(pyridin-3-yl)-urea] the IC50 was 175 nM. `COC(=O)c1cc(NC(=O)N[C@@H](c2ccc(C(F)(F)F)cc2)c2ncccc2C(F)(F)F)cc(C(=O)OC)c1` [Example 103, (S)-dimethyl 5-(3-((4-(trifluoro-methyl)-phenyl)(3-(trifluoro-methyl)-pyridin-2-yl)-methyl)-ureido)-isophthalate (2,2,2-trifluoro-acetate)] gave an IC50 of 527 nM. Work on `O=C(Nc1cccc(Br)c1)N[C@@H](c1ccc(C(F)(F)F)cc1)c1ncccc1C(F)(F)F` [Example 37, (S)-1-(3-bromophenyl)-3-((4-(trifluoro-methyl)-phenyl)(3-(trifluoro-methyl)-pyridin-2-yl)-methyl)urea (2,2,2-trifluoro-acetate)] yielded an IC50 of 4080 nM. In the case of `O=C(Nc1cccnc1)NC(c1ccc(C(F)(F)F)nc1)c1ncccc1C(F)(F)F` (centres unmarked) [Example 25, 1-(pyridin-3-yl)-3-((3-(trifluoro-methyl)-pyridin-2-yl)-(6-(trifluoro-methyl)-pyridin-3-yl)-methyl)urea (2,2,2-trifluoro-acetate)], the IC50 is reported as 216 nM. `N#Cc1ccc(NC(=O)N[C@@H](c2ccc(C(F)(F)F)cc2)c2ncccc2C(F)(F)F)cc1` [Example 46, (S)-1-(4-cyanophenyl)-3-((4-(trifluoro-methyl)-phenyl)(3-(trifluoro-methyl)-pyridin-2-yl)-methyl)urea] gave an IC50 of 3560 nM. In the case of `O=C(NC(=O)c1ccccc1)N[C@@H](c1ccc(C(F)(F)F)cc1)c1ncccc1C(F)(F)F` [Example 67, (S)-N-((4-(trifluoro-methyl)-phenyl)(3-(trifluoro-methyl)-pyridin-2-yl)-methylcarbamoyl) benzamide (2,2,2-trifluoro-acetate)], the IC50 is reported as 352 nM. `C[C@H](NC(=O)N[C@@H](c1ccc(C(F)(F)F)cc1)c1ncccc1C(F)(F)F)c1cccc2ccccc12` [Example 33, 1-((S)-1-(naphthalen-1-yl)ethyl)-3-((S)-(4-(trifluoro-methyl)-phenyl)(3-(trifluoro-methyl)-pyridin-2-yl)-methyl)urea (2,2,2-trifluoro-acetate)] was tested, and the IC50 was 1900 nM. `CCOC(=O)[C@H](C)NC(=O)N[C@@H](c1ccc(C(F)(F)F)cc1)c1ncccc1C(F)(F)F` [Example 94, (S)-ethyl 2-(3-((S)-(4-(trifluoro-methyl)-phenyl)(3-(trifluoro-methyl)-pyridin-2-yl)-ureido)-propanoate (2,2,2-trifluoro-acetate)] gave an IC50 of 1710 nM. Compound `O=C(NC(=O)Oc1ccccc1)N[C@@H](c1ccc(C(F)(F)F)cc1)c1ncccc1C(F)(F)F` [Example 35, (S)-1-(phenyl-formate)-3-((4-(trifluoro-methyl)-phenyl)(3-(trifluoro-methyl)-pyridin-2-yl)-methyl)urea (2,2,2-trifluoro-acetate)] has an IC50 of 1710 nM. `CC(C)(C)OC(=O)N[C@@H](c1ccc(C(F)(F)F)cc1)c1ncccc1Br` [Example 173, (S)-tert-Butyl((3-bromopyridin-2-yl)(4-(trifluoromethyl)-phenyl)methyl)carbamate] gave an IC50 of 299 nM. `O=C(Nc1cccnc1)N[C@@H](c1ccc(C(F)(F)F)cc1)c1ccccn1` [Example 30, (S)-1-(pyridin-2-yl(4-(trifluoro-methyl)-phenyl)-methyl)-3-(pyridin-3-yl)-urea] showed an IC50 of 97 nM. In the case of `COc1ccc(C)cc1NC(=O)N[C@@H](c1ccc(C(F)(F)F)cc1)c1ncccc1C(F)(F)F` [Example 183, (S)-1-(2-methoxy-5-methylphenyl)-3-((4-(trifluoro-methyl)phenyl) (3-(trifluoro-methyl)pyridin-2-yl)methyl)urea (2,2,2-trifluoro-acetate)], the IC50 is reported as 560 nM. `O=C(NCc1cccc(F)c1)N[C@@H](c1ccc(C(F)(F)F)cc1)c1ncccc1C(F)(F)F` [Example 72, (S)-1-(3-fluorobenzyl)-3-((4-(trifluoro-methyl)-phenyl)(3-(trifluoro-methyl)-pyridin-2-yl)-methyl)urea (2,2,2-trifluoro-acetate)] was tested, and the IC50 was 163 nM. Work on `CC(=O)c1cccc(NC(=O)N[C@@H](c2ccc(C(F)(F)F)cc2)c2ncccc2C(F)(F)F)c1` [Example 86, (S)-1-(3-acetylphenyl)-3-((4-(trifluoro-methyl)-phenyl)(3-(trifluoro-methyl)-pyridin-2-yl)-methyl)urea (2,2,2-trifluoro-acetate)] yielded an IC50 of 31 nM. Work on `CC(=O)c1ccc(NC(=O)N[C@@H](c2ccc(C(F)(F)F)cc2)c2ncccc2C(F)(F)F)cc1` [Example 138, (S)-1-(4-acetylphenyl)-3-((4-(trifluoro-methyl)-phenyl)(3-(trifluoro-methyl)-pyridin-2-yl)-methyl)urea (2,2,2-trifluoro-acetate)] yielded an IC50 of 3720 nM. Work on `O=C(Nc1cccnc1)N[C@@H](c1ccc(OC(F)(F)F)c(F)c1)c1ncccc1F` [Example 188, (S)-1-((3-fluoro-4-(trifluoro-methoxy)phenyl) (3-fluoropyridin-2-yl)methyl)-3-(pyridin-3-yl) urea] yielded an IC50 of 7 nM. Compound `Cc1ccccc1NC(=O)N[C@@H](c1ccc(C(F)(F)F)cc1)c1ncccc1C(F)(F)F` [Example 145, (S)-1-(o-tolyl)-3-((4-(trifluoro-methyl)-phenyl)(3-(trifluoro-methyl)-pyridin-2-yl)-methyl)urea (2,2,2-trifluoro-acetate)] has an IC50 of 474 nM. For `CCOC(=O)CCCNC(=O)N[C@@H](c1ccc(C(F)(F)F)cc1)c1ncccc1C(F)(F)F` [Example 68, (S)-ethyl 4-(3-((4-(trifluoro-methyl)-phenyl)(3-(trifluoro-methyl)-pyridin-2-yl)-methyl)-ureido)-butanoate (2,2,2-trifluoro-acetate)], the IC50 was 881 nM. `COc1ccc([C@@H](C)NC(=O)N[C@@H](c2ccc(C(F)(F)F)cc2)c2ncccc2C(F)(F)F)cc1` [Example 130, 1-((R)-1-(4-methoxy-phenyl)ethyl)-3-((S)-(4-(trifluoro-methyl)-phenyl)(3-(trifluoro-methyl)-pyridin-2-yl)-methyl)urea (2,2,2-trifluoro-acetate)] was tested, and the IC50 was 3790 nM. In the case of `CCOc1ccccc1CNC(=O)N[C@@H](c1ccc(C(F)(F)F)cc1)c1ncccc1C(F)(F)F` [Example 133, (S)-1-(2-ethoxybenzyl)-3-((4-(trifluoro-methyl)-phenyl)(3-(trifluoro-methyl)-pyridin-2-yl)-methyl)urea (2,2,2-trifluoro-acetate)], the IC50 is reported as 1590 nM. In the case of `O=C(Nc1ccc(F)cc1F)N[C@@H](c1ccc(C(F)(F)F)cc1)c1ncccc1C(F)(F)F` [Example 48, (S)-1-(2,4-difluoro-phenyl)-3-((4-(trifluoro-methyl)-phenyl)(3-(trifluoro-methyl)-pyridin-2-yl)-methyl)urea], the IC50 is reported as 2280 nM. `CCOC(=O)c1ccc(NC(=O)N[C@@H](c2ccc(C(F)(F)F)cc2)c2ncccc2C(F)(F)F)cc1` [Example 187, (S)-ethyl 4-(3-((4-(trifluoro-methyl)phenyl) (3-(trifluoro-methyl)pyridin-2-yl)methyl)ureido)benzoate (2,2,2-trifluoro-acetate)] gave an IC50 of 1550 nM. In the case of `O=C(NCc1ccc(Cl)c(Cl)c1)N[C@@H](c1ccc(C(F)(F)F)cc1)c1ncccc1C(F)(F)F` [Example 184, (S)-1-(3,4-dichlorobenzyl)-3-((4-(trifluoro-methyl)phenyl) (3-(trifluoro-methyl)pyridin-2-yl)methyl)urea (2,2,2-trifluoro-acetate)], the IC50 is reported as 583 nM.
